Data on one molecule can be found in patent US7179632B2, “Process for the production of allicin” (Neem Biotech Ltd., priority 2001, dated 2007).

This series in a line: Storage stability of allicin in aqueous solution. It is filed as physicochemical.

Take `C=CCS[S+]([O-])CC=C` (centres unmarked) [allicin, thio-2-propene-1-sulfinic acid S-allyl ester]: the stability in solution result is “reasonably stable” (0.5% solution at −40° C., filtered to remove impurities); “extremely unstable” (concentrations above 0.5% solution in water); “unstable” (solution of up to 1.0% v/v allicin). The “effect of pH on stability” value (diluted solution, pH controlled to approximately pH 4.5) is listed as “increases the stability”. Also, under “non-extracted solution diluted to approximately 'it' allicin, stored below −20° C.”, the stability on storage entry was “stable for several months”.
